In patent US8859549B2, “Potassium channel modulators” (AbbVie, Inc., priority 2011, dated 2014) one finds Emax and EC50 data, which are given here for 24 molecules.

For the assay, the target named is T1, KCNQ 2/3 channels (Homo sapiens, UniProt O43525+O43526).
T1 construct: expressed in transfected cells; host or cells: HEK293
Description: KCNQ 2/3 channel activation, thallium flux FLIPR assay (BTC-AM dye). The assay is classed as cell-based. The conditions noted are these: for Emax: HEK293, maximum response relative to the response of 10 μM retigabine (set at 100%), HEK293 KCNQ2/KCNQ3 cells, read-out: % MAX; for EC50: HEK293 cells stably expressing human KCNQ2 and KCNQ3 subunits, thallium-induced fluorescence, 4 min compound incubation. As for the experimental part: The following example describes the assay that can be used to identify compounds that activate KCNQ 2/3 channels.
HEK293 cells stably expressing human KCNQ2 and KCNQ3 subunits were seeded in 96-well, black-walled, clear-bottomed, poly-D-lysine coated plates (BD Biosciences, Bedford, Mass.) at a density of 1×10^5 cells per well 24 hours before the assay. On the assay day, BTC-AM dye (Invitrogen, Carlsbad, Calif.) was loaded into the cells by replacing the cell culture medium with 55 μL/well of 3 μg/mL dye in DPBS. Dye loading was allowed to proceed for 2 hours at room temperature and then cells were washed twice with 50 μL/well of assay buffer (in mM: 10 HEPES pH 7.3, 5 glucose, 140 Na-gluconate, 2.5 K-gluconate, 3.6 Ca-gluconate, 2 MgSO4, 0.1 Ouabain) to remove unloaded dye. Cells were incubated in 50 μL of assay buffer before loading onto a FLIPR system (Molecular Devices, Sunnyvale, Calif.). Various concentrations of compounds to be assayed were added to the cells in 50 μL of assay buffer and incubated for 4 minutes. The fluorescence signal was initiated by adding 100 μL of assay buffer containing 6 mM TlNO3 and 10 mM K2SO4. Fluors were excited using the 488-nm line of an argon laser and emission was filtered using a 540±30 nm bandpass filter. Fluorescent signals were recorded for 3 minutes. Sums of the responses over basal responses were plotted versus concentrations of test compounds to obtain an EC50 value. The maximum response for each test compound was determined relative to the response produced by 10 μM retigabine. The maximum response of retigabine at 10 μM was set at 100%.

Broadly, the EC50 is the concentration at which the effect is half-maximal. High values mean a need for much substance, low ones an effect from little substance. In the case of `CCOC(=O)c1nn(NC(=O)CC2CC3CCC2C3)c(=O)c2ccccc12` (racemic) [Example 51, (±)-ethyl 3-{[(exo)-bicyclo[2.2.1]hept-2-ylacetyl]amino}-4-oxo-3,4-dihydrophthalazine-1-carboxylate], the Emax came to 171% and a half-maximal response (EC50) required 275 nM. On the same counts, the results for `O=C(CC1CC2CCC1C2)Nn1nc(Sc2ccc(Br)cc2)c2ccccc2c1=O` (racemic) [Example 200, (±)-2-[(exo)-bicyclo[2.2.1]hept-2-yl]-N-{4-[(4-bromophenyl)sulfanyl]-1-oxophthalazin-2(1H)-yl}acetamide] are 180% and 23.2 nM. For `O=C(Cc1ccc(Cl)cc1)Nn1nc(N2CCSCC2)c2ccccc2c1=O` [Example 91, 2-(4-chlorophenyl)-N-[1-oxo-4-(thiomorpholin-4-yl)phthalazin-2(1H)-yl]acetamide], in that order: 164% and 920 nM. As to `CN(Cc1ccccc1)c1nn(NC(=O)CC2CC3CCC2C3)c(=O)c2ccccc12` (racemic) [Example 37, (±)-N-{4-[benzyl(methyl)amino]-1-oxophthalazin-2(1H)-yl}-2-[(exo)-bicyclo[2.2.1]hept-2-yl]acetamide], the Emax is 160% and a half-maximal response (EC50) required 42.3 nM. On the same counts, the results for `O=C(Cc1ccc(Cl)cc1)Nn1nc(SCc2ccccc2)c2ccccc2c1=O` [Example 213, N-[4-(benzylsulfanyl)-1-oxophthalazin-2(1H)-yl]-2-(4-chlorophenyl)acetamide] are 123% and 30.3 nM. On the same counts, the results for `O=C(CC1CC2CCC1C2)Nn1nc(Oc2ccccc2)c2ccccc2c1=O` (racemic) [Example 39, (±)-2-[(exo)-bicyclo[2.2.1]hept-2-yl]-N-(1-oxo-4-phenoxyphthalazin-2(1H)-yl)acetamide] are 150% and 9.05 nM.

As to `O=C(Cc1ccc(Cl)cc1)Nn1nc(Sc2ccc(Br)cc2)c2ccccc2c1=O` [Example 195, N-{4-[(4-bromophenyl)sulfanyl]-1-oxophthalazin-2(1H)-yl}-2-(4-chlorophenyl)acetamide], the Emax stood at 96.9% and the response was half-maximal at 432 nM (EC50). Consider `CC(C)(C)OC(=O)Nc1ccc(S(=O)(=O)c2nn(NC(=O)Cc3ccc(Cl)cc3)c(=O)c3ccccc23)cc1` [Example 106, tert-butyl{4-[(3-{[(4-chlorophenyl)acetyl]amino}-4-oxo-3,4-dihydrophthalazin-1-yl)sulfonyl]phenyl}carbamate], for which the Emax was determined as 46.2% and the EC50 stood at 2010 nM.

Turning to `O=C(Cc1c(Cl)cccc1Cl)Nn1nc(N2CCOCC2)c2ccccc2c1=O` [Example 178, 2-(2,6-dichlorophenyl)-N-[4-(morpholin-4-yl)-1-oxophthalazin-2(1H)-yl]acetamide], the Emax is -1.83%. Same read-out and setting: then `O=C(CC1(O)CCCCC1)Nn1nc(-c2ccnc(Cl)c2)c2ccccc2c1=O` [Example 71, N-[4-(2-chloropyridin-4-yl)-1-oxophthalazin-2(1H)-yl]-2-(1-hydroxycyclohexyl)acetamide], with 34%. Turning to `O=C(CC1CC2CCC1C2)Nn1nc(N2CCSCC2)c2ccccc2c1=O` (racemic) [Example 93, (±)-2-[(exo)-bicyclo[2.2.1]hept-2-yl]-N-[1-oxo-4-(thiomorpholin-4-yl)phthalazin-2(1H)-yl]acetamide], the Emax stood at 229% and the EC50 worked out at 78.2 nM. Turning to `N#Cc1cc(-c2nn(NC(=O)CC3CC4CCC3C4)c(=O)c3ccccc23)ccn1` (racemic) [Example 45, (±)-2-[(exo)-bicyclo[2.2.1]hept-2-yl]-N-[4-(2-cyanopyridin-4-yl)-1-oxophthalazin-2(1H)-yl]acetamide], the Emax came to 146% and the concentration for a half-maximal effect (EC50) turned out to be 381 nM. On to `Cc1ccc(C)c(CC(=O)Nn2nc(N3CCOCC3)c3ccccc3c2=O)c1` [Example 167, 2-(2,5-dimethylphenyl)-N-[4-(morpholin-4-yl)-1-oxophthalazin-2(1H)-yl]acetamide], for which the Emax turned out to be 3%.

Turning to `O=C(Cc1cc(F)cc(F)c1)Nn1nc(C2=CCOCC2)c2ccccc2c1=O` [Example 7, 2-(3,5-difluorophenyl)-N-[4-(3,6-dihydro-2H-pyran-4-yl)-1-oxophthalazin-2(1H)-yl]acetamide], the Emax was 140% and a half-maximal response (EC50) required 3130 nM.

Turning to `O=C(CC1CC2CCC1C2)Nn1nc(S(=O)(=O)c2ccccc2)c2ccccc2c1=O` (racemic) [Example 70, (±)-2-[(exo)-bicyclo[2.2.1]hept-2-yl]-N-[1-oxo-4-(phenylsulfonyl)phthalazin-2(1H)-yl]acetamide], the Emax turned out to be 179% and the EC50 turned out to be 13.1 nM. Turning to `O=C(Cc1ccc(Cl)cc1)Nn1nc(Cc2ccc(Cl)[n+]([O-])c2)c2ccccc2c1=O` [Example 104, N-{4-[(6-chloro-1-oxidopyridin-3-yl)methyl]-1-oxophthalazin-2(1H)-yl}-2-(4-chlorophenyl)acetamide], the Emax was 11.7%. On the same count and under the same terms, to `Cc1cc(C)c(CC(=O)Nn2nc(N3CCOCC3)c3ccccc3c2=O)c(C)c1` [Example 168, N-[4-(morpholin-4-yl)-1-oxophthalazin-2(1H)-yl]-2-(2,4,6-trimethylphenyl)acetamide] belongs 1.91%.

For `CN(Cc1ccccc1)c1nn(NC(=O)CC(C)(C)c2ccccc2)c(=O)c2ccccc12` [Example 52, N-{4-[benzyl(methyl)amino]-1-oxophthalazin-2(1H)-yl}-3-methyl-3-phenylbutanamide], the Emax came to 185% and the EC50 is 102 nM. Consider `O=C(CC12CC3CC(CC1C3)C2)Nn1nc(S(=O)(=O)c2ccccc2)c2ccccc2c1=O` [Example 218, 2-(hexahydro-2,5-methanopentalen-3a(1H)-yl)-N-[1-oxo-4-(phenylsulfonyl)phthalazin-2(1H)-yl]acetamide], for which the Emax was determined as 151% and the EC50 was 58.3 nM. On the same counts, the results for `CC(C)(C)NC(=O)c1nn(NC(=O)CC2CC3CCC2C3)c(=O)c2ccccc12` (racemic) [Example 99, (±)-3-{[(exo)-bicyclo[2.2.1]hept-2-ylacetyl]amino}-N-tert-butyl-4-oxo-3,4-dihydrophthalazine-1-carboxamide] are 177% and 206 nM. Take `O=C(CC1CCOC1)Nn1nc(-c2ccnc(Cl)c2)c2ccccc2c1=O` (stereo not drawn) [Example 67, N-[4-(2-chloropyridin-4-yl)-1-oxophthalazin-2(1H)-yl]-2-(tetrahydrofuran-3-yl)acetamide]: the Emax amounted to 6.78%. As for `O=C(Cc1cc(F)cc(F)c1)Nn1nc(Sc2ccccc2)c2ccccc2c1=O` [Example 57, 2-(3,5-difluorophenyl)-N-[1-oxo-4-(phenylsulfanyl)phthalazin-2(1H)-yl]acetamide], the Emax amounted to 116% and the EC50 is 38.1 nM. In the case of `CCOC(=O)C(C)c1nn(NC(=O)Cc2ccc(Cl)cc2)c(=O)c2ccccc12` (stereo not drawn) [Example 109, ethyl 2-(3-{[(4-chlorophenyl)acetyl]amino}-4-oxo-3,4-dihydrophthalazin-1-yl)propanoate], the Emax is 53.2% and the response was half-maximal at 1420 nM (EC50). Regarding `O=C(Cc1ccc(Cl)cc1)Nn1nc(S(=O)(=O)c2ccncc2)c2ccccc2c1=O` [Example 203, 2-(4-chlorophenyl)-N-[1-oxo-4-(pyridin-4-ylsulfonyl)phthalazin-2(1H)-yl]acetamide], the Emax is 85% and the EC50 is 621 nM.
